This note sets out measurements from patent US6875760B2 (Novo Nordisk A/S, priority 1999, dated 2005).

This assay deals with T1, human glucagon receptor (Homo sapiens, UniProt P47871).
T1 construct: expressed in transfected cells; host or cells: BHK (baby hamster kidney) cells
T1 sequence (P47871 26-477): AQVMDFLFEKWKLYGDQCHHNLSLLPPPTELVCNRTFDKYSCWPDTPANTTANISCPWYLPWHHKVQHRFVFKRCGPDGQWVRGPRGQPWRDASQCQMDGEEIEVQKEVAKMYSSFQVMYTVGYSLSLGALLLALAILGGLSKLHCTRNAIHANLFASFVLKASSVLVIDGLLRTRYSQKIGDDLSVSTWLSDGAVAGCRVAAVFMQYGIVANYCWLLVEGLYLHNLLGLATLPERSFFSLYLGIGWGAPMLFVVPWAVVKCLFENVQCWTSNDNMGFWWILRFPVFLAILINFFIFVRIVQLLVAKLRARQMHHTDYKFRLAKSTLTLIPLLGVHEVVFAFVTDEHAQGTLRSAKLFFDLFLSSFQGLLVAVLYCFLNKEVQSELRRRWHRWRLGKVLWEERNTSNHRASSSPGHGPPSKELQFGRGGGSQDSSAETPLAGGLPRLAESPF
Nature of the assay: Glucagon Binding Assay (III). Conditions: BHK cell membranes, WGA SPA beads, 125I-glucagon; read-out: Glu Bd Assay (III) IC50. Put shortly:
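Non-specific binding was set with 500 nM glucagon in this SPA-type binding assay using WGA beads. The receptor source was a membrane preparation, kept on ice or at 4 °C, from BHK cells transfected with the human receptor. Scintillation counts were taken after 4 hours of shaking and 8–48 hours of settling.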
As usually defined, the IC50 is the concentration at which inhibition is half-maximal. Regarding `O=C(Nc1nn[nH]n1)c1ccc(CN(C(=O)c2cc3cc(OC(F)(F)F)ccc3[nH]2)c2ccc(C3CCCCC3)cc2)cc1` [Example 558, 5-Trifluoromethoxy-1H-indole-2-carboxylic acid (4-cyclohexylphenyl)-[4-(2H-tetrazol-5-ylcarbamoyl)benzyl]amide], the IC50 turned out to be 1060 nM. As for `CC(C)(C)[C@H]1CC[C@H](N(Cc2ccc(C(=O)NCCC(=O)O)cc2)NC(=O)c2ccc(OC(F)(F)F)cc2)CC1` [Example 429, 3-{4-[N-(trans-4-tert-Butylcyclohexyl)-N′-(4-trifluoromethoxybenzoyl)hydrazinomethyl]benzoylamino}propionic acid], the IC50 came to 86 nM. As for `O=C(O)CCNC(=O)c1ccc(CN(C(=O)Oc2cc(C(F)(F)F)cc(C(F)(F)F)c2)c2ccc(C3CCCCC3)cc2)cc1` [Example 419, 3-(-4-{[(3,5-Bis(trifluoromethyl)phenoxycarbonyl)-(4-cyclohexylphenyl)amino]methyl}benzoylamino)propionic acid], the concentration for half-maximal inhibition (IC50) was found to be 482 nM. As for `O=C(Nc1nn[nH]n1)c1ccc(CN(C(=O)Nc2cccc([N+](=O)[O-])c2)c2ccc(C3=CCCCC3)cc2)cc1` [Example 308, 4-[1-(4-Cyclohex-1-enylphenyl)-3-(3-nitrophenyl)ureidomethyl]-N-(2H-tetrazol-5-yl)benzamide], the IC50 was 61 nM. In the case of `CC(Oc1ccc(OC(F)(F)F)cc1)C(=O)N(Cc1ccc(C(=O)Nc2nn[nH]n2)cc1)c1ccc(C2CCCCC2)cc1` (centres unmarked) [Example 493], the IC50 amounted to 880 nM. Regarding `CC1CCC(N(Cc2ccc(C(=O)NCCC(=O)O)cc2)C(=O)Nc2ccc(Oc3ccccc3)cc2)CC1` (centres unmarked) [Example 22, 3-{4-[1-(4-Methylcyclohexyl)-3-(4-phenoxyphenyl)ureidomethyl]benzoylamino}propionic acid], the concentration for half-maximal inhibition (IC50) was determined as 1100 nM. As to `CC(C)(C)c1ccc(N(Cc2ccc(C(=O)Nc3nn[nH]n3)cc2)C(=O)Nc2ccc(SC(F)(F)F)cc2)cc1` [Example 332, 4-[1-(4-tert-Butylphenyl)-3-(4-trifluoromethylsulfanylphenyl)ureidomethyl]-N-(2H-tetrazol-5-yl)benzamide], the IC50 was 20 nM. With `CC(C)(C)C1CCC(N(Cc2ccc(C(=O)Nc3nn[nH]n3)cc2)C(=O)CSCc2ccccc2)CC1` (centres unmarked) [Example 537, 4-{[(2-Benzylsulfanylacetyl)-(4-tert-butylcyclohexyl)amino]methyl}-N-(2H-tetrazol-5-yl)benzamide], the concentration for half-maximal inhibition (IC50) worked out at 280 nM.

Consider `COc1ccc(NC(=O)N(Cc2ccc(C(=O)Nc3nn[nH]n3)cc2)c2ccc(C(C)(C)C)cc2)cc1S(C)(=O)=O` [Example 339, 4-[1-(4-tert-Butylphenyl)-3-(3-methylsulfonyl-4-methoxyphenyl)ureidomethyl]-N-(2H-tetrazol-5-yl)benzamide], for which the IC50 came to 797 nM.

As to `O=C(O)CCNC(=O)c1ccc(CN(Cc2ccccc2Cl)C(=O)Nc2ccc(OC(F)(F)F)cc2)cc1` [Example 431, 3-{4-[1-(2-Chlorobenzyl)-3-(4-trifluoromethoxyphenyl)ureidomethyl]benzoylamino}propionic acid], the half-inhibitory concentration (IC50) was found to be 2910 nM. In the case of `O=C(Nc1nn[nH]n1)c1ccc(CN(C(=O)c2ccc(Cc3ccccc3)cc2)c2ccc(C3CCCCC3)cc2)cc1` [Example 508, 4-{[(4-Cyclohexylphenyl)-(4-benzylbenzoyl)amino]methyl}-N-(2H-tetrazol-5-yl)benzamide], the IC50 came out at 198 nM. `CCCc1ccc(N(Cc2ccc(C(=O)NCCC(=O)O)cc2)C(=O)Nc2ccc(OC(F)(F)F)cc2)cc1` [Example 439, 3-{4-[1-(4-Propylphenyl)-3-(4-trifluoromethoxyphenyl)ureidomethyl]benzoylamino}propionic acid]: the IC50 is 184 nM. As to `O=C(O)CCNC(=O)c1ccc(CN(Cc2ccc(C(F)(F)F)cc2)Cc2ccc(C(F)(F)F)cc2)cc1` [Example 384, 3-(4-{[Bis(4-trifluoromethylbenzyl)amino]methyl}benzoylamino)propionic acid], the half-inhibitory concentration (IC50) turned out to be 324 nM. For the compound `CN(C)S(=O)(=O)c1cccc(NC(=O)N(Cc2ccc(C(=O)Nc3nn[nH]n3)cc2)c2ccc(C3CCCCC3)cc2)c1` [Example 275, 4-[1-(4-Cyclohexylphenyl)-3-(3-dimethylsulfamoylphenyl)ureidomethyl]-N-(2H-tetrazol-5-yl)benzamide], the half-inhibitory concentration (IC50) amounted to 101 nM. Take `CC(C)(C)c1ccc(N(Cc2ccc(C(=O)Nc3nn[nH]n3)cc2)C(=O)Nc2cccc(S(C)(=O)=O)c2)cc1` [Example 449, 4-[1-(4-tert-Butylphenyl)-3-(3-methylsulfonylphenyl)ureidomethyl]-N-(2H-tetrazol-5-yl)benzamide]: the half-inhibitory concentration (IC50) was found to be 195 nM. Under `CC(C)(C)C1CCC(N(Cc2ccc(C(=O)Nc3nn[nH]n3)cc2)C(=O)Cc2ccc(-c3ccccc3)cc2)CC1` (centres unmarked) [Example 547, 4-{[(2-Biphenyl-4-ylacetyl)-(4-tert-butylcyclohexyl)amino]methyl}-N-(2H-tetrazol-5-yl)benzamide] stands 88 nM; under `CCC(C)c1ccc(N(Cc2ccc(C(=O)Nc3nn[nH]n3)cc2)C(=O)Nc2ccc(S(C)(=O)=O)cc2)cc1` (centres unmarked) [Example 448, 4-[1-(4-sec-Butylphenyl)-3-(4-methylsulfonylphenyl)ureidomethyl]-N-(2H-tetrazol-5-yl)benzamide], 1480 nM; under `CC(=O)c1cccc(NC(=O)N(Cc2ccc(C(=O)Nc3nn[nH]n3)cc2)c2ccc(C3CCCCC3)cc2)c1` [Example 283, 4-[3-(3-Acetylphenyl)-1-(4-cyclohexylphenyl)ureidomethyl]-N-(2H-tetrazol-5-yl)benzamide], 57 nM. For `O=C(O)CCNC(=O)c1ccc(CN(C(=O)Nc2ccc(OC(F)(F)F)cc2)C2CCC(Oc3ccccc3)CC2)cc1` (centres unmarked) [Example 244, 3-{4-[1-(4-Phenoxycyclohexyl)-3-(4-trifluoromethoxyphenyl)ureidomethyl]benzoylamino}propionic acid], the IC50 is 528 nM.

Consider `CC(C)OC(=O)c1ccc(NC(=O)N(Cc2ccc(C(=O)NCCC(=O)O)cc2)C2CCC(C(C)(C)C)CC2)cc1` (centres unmarked) [Example 73, 4-{3-(4-tert-Butylcyclohexyl)-3-[4-(2-carboxyethylcarbamoyl)benzyl]ureido}benzoic acid isopropyl ester], for which the concentration for half-maximal inhibition (IC50) turned out to be 245 nM.

`CC(C)C1CCC(N(Cc2ccc(C(=O)NCCC(=O)O)cc2)C(=O)Nc2ccc(OC(F)(F)F)cc2)CC1` (centres unmarked) [Example 82, 3-{4-[1-(4-Isopropylcyclohexyl)-3-(4-trifluoromethoxyphenyl)ureidomethyl]benzoylamino}propionic acid]: the IC50 is 59 nM. Consider `O=C(Nc1nn[nH]n1)c1ccc(CN(C(=O)Nc2cc(Cl)cc(Cl)c2)c2ccc(N3CCCCC3)cc2)cc1` [Example 316, 4-[3-(3,5-Dichlorophenyl)-1-(4-piperidin-1-ylphenyl)ureidomethyl]-N-(2H-tetrazol-5-yl)benzamide], for which the half-inhibitory concentration (IC50) came to 547 nM. For `CC(C)Cc1ccc(C(=O)N(Cc2ccc(C(=O)NCCC(=O)O)cc2)c2ccc(C3CCCCC3)cc2)cc1` [Example 520, 3-(4-{[(4-Cyclohexylphenyl)-(4-isobutylbenzoyl)amino]methyl}benzoylamino)propionic acid], the IC50 came to 1980 nM. For the compound `CC(O)c1cccc(NC(=O)N(Cc2ccc(C(=O)Nc3nn[nH]n3)cc2)c2ccc(C3CCCCC3)cc2)c1` (centres unmarked) [Example 306, 4-{1-(4-Cyclohexylphenyl)-3-[3-(1-hydroxyethyl)phenyl]ureidomethyl}-N-(2H-tetrazol-5-yl)benzamide], the IC50 turned out to be 209 nM. As for `Cc1ccc(NC(=O)N(Cc2ccc(C(=O)Nc3nn[nH]n3)cc2)c2ccc(C3CCCCC3)cc2)cc1Cl` [Example 327, 4-[3-(3-Chloro-4-methylphenyl)-1-(4-cyclohexylphenyl)ureidomethyl]-N-(2H-tetrazol-5-yl)benzamide], the half-inhibitory concentration (IC50) stood at 15 nM. On to `CC(C)(C)C1CCC(N(Cc2ccc(C(=O)NCCC(=O)O)cc2)C(=O)c2ccc(Cc3ccccc3)cc2)CC1` (centres unmarked) [Example 525, 3-(4-{[(4-Benzylbenzoyl)-(4-tert-butylcyclohexyl)amino]methyl}benzoylamino)propionic acid], for which the IC50 was 669 nM. Take `O=C(Nc1nn[nH]n1)c1ccc(CN(C(=O)Nc2nc3cc4c(cc3s2)OC(F)(F)C(F)(F)O4)c2ccc(C3CCCCC3)cc2)cc1` [Example 617]: the IC50 is 104 nM. On to `CSc1cccc(NC(=O)N(Cc2ccc(C(=O)NCCC(=O)O)cc2)C2CCC(C(C)(C)C)CC2)c1` (centres unmarked) [Example 26, 3-{4-[1-(4-tert-Butylcyclohexyl)-3-(3-methylsulfanylphenyl)ureidomethyl]benzoylamino}propionic acid], for which the IC50 amounted to 385 nM. `CCN(c1ccccc1)S(=O)(=O)c1cc(NC(=O)N(Cc2ccc(C(=O)NCCC(=O)O)cc2)[C@H]2CC[C@H](C3CCCCC3)CC2)ccc1C` [Example 390, 3-(4-{1-(trans-4-Cyclohexylcyclohexyl)-3-[3-(N-ethyl-N-phenylsulfamoyl)-4-methylphenyl]ureidomethyl}benzoylamino)propionic acid]: the 50% inhibitory concentration (IC50) was 6 nM.

As to `CC(C)(C)[C@H]1CC[C@H](N(Cc2ccc(C(=O)NCCC(=O)O)cc2)C(=O)Nc2cc(C(F)(F)F)cc(C(F)(F)F)c2)CC1` [Example 100, 3-{4-[3-(3,5-Bis-trifluoromethylphenyl)-1-(trans-4-tert-butylcyclohexyl)ureidomethyl]benzoylamino}propionic acid], the concentration for half-maximal inhibition (IC50) was determined as 50 nM. Turning to `O=C(O)c1ccc2nc(NC(=O)N(Cc3ccc(C(=O)Nc4nn[nH]n4)cc3)c3ccc(C4CCCCC4)cc3)sc2c1` [Example 364, 2-{3-(4-Cyclohexylphenyl)-3-[4-(2H-tetrazol-5-ylcarbamoyl)benzyl]ureido}benzothiazole-6-carboxylic acid], the concentration for half-maximal inhibition (IC50) is 2680 nM. In the case of `CC(C)(C)C1CCC(N(Cc2ccc(C(=O)NCCC(=O)O)cc2)C(=O)Nc2ccc(Oc3ccccc3)cc2)CC1` (centres unmarked) [Example 17, 3-{4-[1-(4-tert-Butylcyclohexyl)-3-(4-phenoxyphenyl)ureidomethyl]benzoylamino}propionic acid], the IC50 was 27 nM.
